The subject of data set [1] is Rattus norvegicus. In words: Reduction in insulin level in Zucker fa/fa rat plasma at 75 mg/kg, po qd for 5 days relative to vehicle-treated control control. The format is functional, organism-based. On the set-up: dose 75 mg/kg.
Data set [2] addresses T1, Peroxisome proliferator-activated receptor gamma (Mus musculus, UniProt P37238).
T1 sequence (P37238 whole entry): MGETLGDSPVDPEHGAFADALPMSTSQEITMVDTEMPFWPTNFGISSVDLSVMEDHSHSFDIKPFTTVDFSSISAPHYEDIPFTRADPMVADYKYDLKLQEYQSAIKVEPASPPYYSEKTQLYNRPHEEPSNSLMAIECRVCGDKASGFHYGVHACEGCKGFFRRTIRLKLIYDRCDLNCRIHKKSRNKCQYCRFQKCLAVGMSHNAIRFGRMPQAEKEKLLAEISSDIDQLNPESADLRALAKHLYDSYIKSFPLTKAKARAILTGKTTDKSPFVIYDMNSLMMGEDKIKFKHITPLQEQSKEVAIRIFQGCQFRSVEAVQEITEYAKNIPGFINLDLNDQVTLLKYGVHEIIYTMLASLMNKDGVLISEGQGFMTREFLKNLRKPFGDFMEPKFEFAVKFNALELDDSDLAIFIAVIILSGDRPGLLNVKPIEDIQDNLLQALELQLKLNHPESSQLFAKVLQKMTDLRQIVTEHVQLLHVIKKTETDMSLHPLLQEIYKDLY
Briefly: Partial agonist activity at mouse PPARgamma expressed in CV-1 cells by reporter gene assay. The data set is classed as cell-based.

Data set [3] is described as follows: Oral bioavailability in Zucker fa/fa rat at 30 mg/kg. The format is ADME, organism-based. As to conditions: in vivo.
The subject of data set [4] is Rattus norvegicus. Briefly: Antihypertensive activity in dosed SHR NCrl rat assessed as decrease in diastolic blood pressure at 10 mg/kg, po administered daily for 12 days relative to vehicle-treated control control. The format is functional, organism-based. Set-up: dose 10 mg/kg. As to conditions: Artery.
In data set [5] the target is T2, Peroxisome proliferator-activated receptor delta (Mus musculus, UniProt P35396).
T2 sequence (P35396 whole entry): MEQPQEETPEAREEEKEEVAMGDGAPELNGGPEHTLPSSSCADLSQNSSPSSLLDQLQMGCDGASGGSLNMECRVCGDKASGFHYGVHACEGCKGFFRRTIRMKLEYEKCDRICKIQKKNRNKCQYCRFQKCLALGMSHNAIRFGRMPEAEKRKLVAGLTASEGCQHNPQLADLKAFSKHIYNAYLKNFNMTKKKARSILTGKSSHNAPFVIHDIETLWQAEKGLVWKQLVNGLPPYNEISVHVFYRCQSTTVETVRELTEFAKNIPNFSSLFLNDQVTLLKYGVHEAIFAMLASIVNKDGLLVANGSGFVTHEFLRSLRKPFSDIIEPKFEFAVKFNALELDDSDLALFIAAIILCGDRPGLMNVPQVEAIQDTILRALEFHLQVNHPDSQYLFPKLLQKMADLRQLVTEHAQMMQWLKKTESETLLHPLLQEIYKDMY
Briefly: Agonist activity at mouse PPARdelta expressed in CV-1 cells by reporter gene assay. The format is cell-based. For orientation: Reporter assays use an easily measured gene product as a stand-in for the process of interest.

Data set [6] has as its system Rattus norvegicus. Briefly: Antihypertensive activity in dosed SHR NCrl rat assessed as decrease in systolic blood pressure at 10 mg/kg, po administered daily for 12 days relative to baseline control. The format is functional, organism-based. Set-up: dose 10 mg/kg. As to conditions: Artery.
The test system of data set [7] is Rattus norvegicus. In words: Antihypertensive activity in dosed SHR NCrl rat assessed as decrease in systolic blood pressure at 10 mg/kg, po administered daily for 12 days relative to vehicle-treated control control. On the set-up: dose 10 mg/kg. The format is functional, organism-based. The note with it: Artery.
The nature of data set [8]: Half life in Zucker fa/fa rat at 5.2 mg/kg, iv. The data set is classed as ADME, organism-based. As to conditions: in vivo. On the set-up: dose 5.2 mg/kg, route intravenous.
Data set [9] has as its system Rattus norvegicus. Briefly: Antihypertensive activity in dosed SHR NCrl rat assessed as decrease in diastolic blood pressure at 10 mg/kg, po administered daily for 12 days relative to baseline control. The format is functional, organism-based. Set-up: dose 10 mg/kg. The note with it: Artery.
The target of data set [10] is T3, Peroxisome proliferator-activated receptor gamma (Homo sapiens) (UniProt P37231).
T3 sequence (whole entry): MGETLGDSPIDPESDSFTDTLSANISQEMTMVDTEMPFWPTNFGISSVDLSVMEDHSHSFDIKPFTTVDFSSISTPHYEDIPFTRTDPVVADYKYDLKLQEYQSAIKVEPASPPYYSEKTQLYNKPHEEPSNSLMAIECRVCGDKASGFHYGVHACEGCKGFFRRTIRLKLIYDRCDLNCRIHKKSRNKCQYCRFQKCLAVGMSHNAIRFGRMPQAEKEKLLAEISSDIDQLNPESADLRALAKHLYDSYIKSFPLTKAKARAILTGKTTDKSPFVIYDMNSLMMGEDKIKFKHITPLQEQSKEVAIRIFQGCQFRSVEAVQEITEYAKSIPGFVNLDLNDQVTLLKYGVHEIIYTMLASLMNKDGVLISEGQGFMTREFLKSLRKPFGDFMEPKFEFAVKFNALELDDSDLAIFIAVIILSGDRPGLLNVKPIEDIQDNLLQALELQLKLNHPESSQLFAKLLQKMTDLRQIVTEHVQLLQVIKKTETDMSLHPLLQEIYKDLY
Briefly: Partial agonist activity at human PPARgamma expressed in CV-1 cells by reporter gene assay relative to rosiglitazone. The format is cell-based.

The subject of data set [11] is Rattus norvegicus. Briefly: Reduction in triglyceride level in Zucker fa/fa rat plasma at 75 mg/kg, po qd for 5 days relative to vehicle-treated control control. The data set is classed as functional, organism-based. Set-up: dose 75 mg/kg.
A short description of data set [12]: AUC in Zucker fa/fa rat at 5.2 mg/kg, iv. The format is ADME, organism-based. On the set-up: dose 5.2 mg/kg, route intravenous. As to conditions: plasma.
Data set [13] has as its system Rattus norvegicus. In words: Reduction in free fatty acid level in Zucker fa/fa rat plasma at 75 mg/kg, po qd for 5 days relative to vehicle-treated control control. The data set is classed as functional, organism-based. Set-up: dose 75 mg/kg.
The target in data set [14] is T4, Peroxisome proliferator-activated receptor gamma (Homo sapiens, UniProt P37231).
T4 sequence (P37231 whole entry): T3 sequence (whole entry)
Briefly: Partial agonist activity at human PPARgamma expressed in CV-1 cells by reporter gene assay. The data set is classed as cell-based.

Data set [15] deals with T5, Type-1 angiotensin II receptor (Homo sapiens, UniProt P30556).
T5 sequence (P30556 whole entry): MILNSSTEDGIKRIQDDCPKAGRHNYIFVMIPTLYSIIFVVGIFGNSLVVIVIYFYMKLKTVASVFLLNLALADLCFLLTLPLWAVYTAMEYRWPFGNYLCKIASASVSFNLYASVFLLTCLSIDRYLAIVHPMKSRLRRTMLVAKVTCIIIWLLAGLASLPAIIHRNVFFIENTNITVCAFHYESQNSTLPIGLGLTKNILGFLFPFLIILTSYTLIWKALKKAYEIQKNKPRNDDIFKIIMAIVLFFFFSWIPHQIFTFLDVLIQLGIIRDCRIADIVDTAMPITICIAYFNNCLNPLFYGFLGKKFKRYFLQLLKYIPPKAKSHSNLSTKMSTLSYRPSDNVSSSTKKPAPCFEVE
Briefly: Antagonist activity at human AT1 receptor expressed in CHO cells measured after overnight incubation by luciferase reporter gene assay. The format is cell-based.

Data set [16] concerns the target T6, Peroxisome proliferator-activated receptor alpha (Mus musculus, UniProt P23204).
T6 sequence (P23204 whole entry): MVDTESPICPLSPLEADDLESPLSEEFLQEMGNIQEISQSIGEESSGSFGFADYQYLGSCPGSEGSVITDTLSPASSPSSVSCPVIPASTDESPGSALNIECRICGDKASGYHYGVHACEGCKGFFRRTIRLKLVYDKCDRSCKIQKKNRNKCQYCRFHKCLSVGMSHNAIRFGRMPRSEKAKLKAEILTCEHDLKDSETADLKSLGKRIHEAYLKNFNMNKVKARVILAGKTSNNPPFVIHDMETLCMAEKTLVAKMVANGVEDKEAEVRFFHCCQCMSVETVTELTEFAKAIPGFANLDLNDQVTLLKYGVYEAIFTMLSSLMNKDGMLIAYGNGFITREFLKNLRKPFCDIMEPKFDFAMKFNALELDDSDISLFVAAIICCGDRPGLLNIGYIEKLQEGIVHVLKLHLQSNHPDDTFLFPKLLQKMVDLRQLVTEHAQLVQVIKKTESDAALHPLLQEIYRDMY
In words: Agonist activity at mouse PPARalpha expressed in CV-1 cells by reporter gene assay. The format is cell-based.

Data set [17] concerns the target T7, Peroxisome proliferator-activated receptor gamma (Mus musculus) (UniProt P37238).
T7 sequence (whole entry): T1 sequence (P37238 whole entry)
In words: Partial agonist activity at mouse PPARgamma expressed in CV-1 cells by reporter gene assay relative to rosiglitazone. The format is cell-based.

The nature of data set [18]: Clearance in Zucker fa/fa rat at 5.2 mg/kg, iv. The format is ADME, organism-based. On the set-up: dose 5.2 mg/kg, route intravenous. As to conditions: in vivo.
Data set [19] is described as follows: AUC in Zucker fa/fa rat at 30 mg/kg, po. The data set is classed as ADME, organism-based. On the set-up: dose 30 mg/kg, route oral. The note with it: plasma.
Data set [20] in a line: Volume of distribution at steady state in Zucker fa/fa rat 5.2 mg/kg, iv. The data set is classed as ADME, organism-based. On the set-up: dose 5.2 mg/kg, route intravenous. The note with it: in vivo, read-out: Vdss.

Each structure is given as a SMILES string. Active and inactive are the calls of the source.

The text below walks through data of ChEMBL document CHEMBL3112505, “Discovery of novel indazole derivatives as dual angiotensin II antagonists and partial PPARγ agonists” (Bioorg Med Chem Lett, 2014).

A word on the EC50: it is the concentration needed to bring the measured effect to its halfway point. Low values mean a more potent agent, high ones a less potent agent. The term bioavailability denotes the share of a dose that reaches the circulation, judged against a reference dose that is usually intravenous. Low values mean poor availability, high ones good availability. One may read the half-life as the time needed for the level to fall by half in the phase considered. For orientation: AUC means concentration integrated over time. A lower AUC goes with less exposure. As usually defined, the IC50 is the concentration at which inhibition is half-maximal. High values mean a need for much substance, low ones inhibition by little substance. For orientation: clearance means a measure of how efficiently the substance is removed, as volume per time. Low values mean a low capacity for elimination, high ones a high capacity for elimination. Take `CCCCn1c(-c2ccc3nn(CCC)c(Cc4ccc(-c5ccccc5-c5nn[nH]n5)cc4)c3c2)nc2ccccc21`: the outcome with Rattus norvegicus [1], in the data set with Rattus norvegicus [4], with Rattus norvegicus [6], in the data set on Rattus norvegicus [7], in the data set with Rattus norvegicus [9] and with Rattus norvegicus [11] was Active. The result in the data set with Rattus norvegicus [13] was Active. In addition, the EC50 was 270 nM in data set [2], more than 10000 nM in data set [5], 250 nM in [14] and more than 10000 nM in data set [16]. The molecule further registered a bioavailability in [3] of 78%. Besides, the half-life in data set [8] is 14 h. For the same molecule, the max activation in data set [10] was 40%; in data set [17], 18%. The exposure (AUC) in data set [12] was determined as 8010 ng·h/mL; in [19], 36300 ng·h/mL. The same molecule returned a concentration for half-maximal inhibition (IC50) in [15] of 6 nM. In [18], this molecule yielded a clearance of 11 mL/min/kg. Also, the Vd in data set [20] amounted to 7.8 L/kg.
